# Laboratory results published in US10532065B2, “Bisphosphonic acid derivative and application for same” (NAGASAKI UNIVERSITY, priority 2014, dated 2020).
# “And” between values parts separate entries of the source, which are not always exact repeats. Equal entries are not always repeated. “Also recorded” adds a separate entry of the source. Where two headings read alike, the source gives them in different places.
# Key:
# Type in all cases: cell-based
# U937 cells = assay: U937 cell growth inhibition (direct antitumor action, CellTiterGlo); conditions: for IC50: U937 cell growth inhibition, 4 days culture
# Procedure: The direct antitumor action of bisphosphonic acid POM ester and bisphosphonic acid was studied by comparison using U937.
# The direct antitumor action of various bisphosphonic acid POM esters was studied by comparison using U937 and EJ-1. The measurement was performed according to Experimental Example 2 and Experimental Example 4.
# C1R cells / γδ T cells = assay: TNF-α production from γδ T cells stimulated by compound-pretreated C1R cells; conditions: B cell lymphoma, 4 hr pretreatment, 16 hr with γδ T cells, read-out: TNF-α50
# Procedure: (§1) Since the above-mentioned results of Experimental Example confirm that the activity of bisphosphonic acids becomes high by POM esterification in various tumor cells, the TNF-α production induction ability of more number of tumor cells was quantitatively studied. […] Thereto was added a solution (500 μl) of compound 7 obtained by serially diluting 10 mM stock solution 10-fold from 20 μM, or a solution (500 μl) of compound 14 obtained by serially diluting 10 mM stock solution 10-fold from 200 μM, and the cells were suspended well. These conical tubes were stood at 37° C. for 4 hr, and the cells were washed 3 times with 5 ml of culture medium. To these cells was added 500 μl of medium, and the cells were suspended well. […] The cell culture medium was suspended well, and the plate was centrifuged at 1,700 rpm, 4° C. for 2 min and the culture supernatant (150 μl) was taken and placed in another round-bottomed 96 well plate. The plate was frozen at −80° C. overnight, left standing at room temperature for 1 hr, stirred well and 100 μl thereof was subjected to ELISA of TNF-α. The content of TNF-α was calculated from the analytical curve of TNF-α. These were performed in triplicate, and TNF-α50 of bisphosphonic acid POM ester derivative (compound 7) and bisphosphonic acid (compound 14) was calculated and summarized in Table 8.
# 786-0 cells / γδ T cells = assay: TNF-α production from γδ T cells stimulated by compound-pretreated 786-0 cells; conditions: 786-0, Renal cell carcinoma, 4 hr pretreatment, 16 hr with γδ T cells, read-out: TNF-α50
# Procedure: as §1
# PEER cells = assay: PEER tumor cell growth inhibition (CellTiterGlo); conditions: T cell acute lymphocytic leukemia, 4 days culture
# Procedure: To quantitatively study an action of compound 7, which is a bisphosphonic acid POM ester derivative, on various hematologic tumor-derived lymphoma and myeloidic leukemia cells, the concentration of a compound that inhibits cell proliferation to half was calculated as IC50, and a direct antitumor effect was studied from the value thereof. […] First, MOLT-4, THP-1, SCC-3, PEER, RAMOS-RA1, C1R, MOLT-3, Raji, U937, K562, Daudi were cultured in RPMI1640 medium supplemented with 10% calf serum at 37° C. under 5% CO2 atmosphere while maintaining log phase. The cells were recovered, and centrifuged at 1,700 rpm, 4° C. for 5 min. The supernatant was removed, and suspended in RPMI1640 medium supplemented with 10% calf serum to 500 cells/50 μl. On the other hand, 10 mM stock solution of compound 7 which is a bisphosphonic acid POM ester derivative was serially diluted 2-fold from 200 μM. In addition, 10 mM stock solution of compound 14 which is bisphosphonic acid was serially diluted 2-fold from 2 mM. Then, the cell suspension (50 μl, 500 cells) and the compound solution (50 μl) were added to a flat-bottomed 96 well plate and cultured at 37° C. under 5% CO2 atmosphere for 4 days. Then, 100 μl of CellTiterGlo solution was added, and the mixture was pipetted 10 strokes, and transferred to a 96 well OptiPlate. […]
# [1] = test system: farnesyl diphosphate synthase (geranylgeranylation of Rap1A); assay: Rap1A geranylgeranylation inhibition in tumor cells (Western blotting); conditions: non-geranylgeranylated Rap1A, 16 hr, various tumor cell lines (FIG. 9)
# From the text: To verify this mechanism, whether the farnesyl diphosphate synthase is inhibited in the cell needs to be confirmed. If farnesyl diphosphate synthase is inhibited, intracellular concentration of geranylgeranyl diphosphate decreases, and geranylgeranylation of Rap1A small G protein is inhibited. The inhibitory effect thereof is clarified by quantifying the inhibition of geranylgeranylation of Rap1A. […] As the tumor cells, MOLT-3, PEER, C1R, J.RT3-T3.5, Raji, RAMOS-RA1, MOLT-4, HL60, U937, THP-1, SCC-3, P31/FUJ, K562, NOMO-1, YMB-1-E, MRK-nu-1, HMC-1-8, MCF-7, MDA-MB-231, T-47D, SK-BR-3, 786-0, VMRC-RCZ, UOK121, Caki-1, A-704, BxPC-3, KP4-1, KP4-2, KP4-3, MiaPaCa-2, TGBC24TKB, ACS, MG-63, LK-2, EJ-1 were used. […] Thereto was added 10 mM stock solution of compound 7 to a final concentration of 10 μM, 1 μM, 100 nM, 10 nM, 1 nM, 100 pM, 10 pM, 1 pM. These flasks were cultured at 37° C. under 5% CO2 atmosphere for 16 hr. Non-adherent cells were left unattended, and adherent cells were recovered using EDTA/trypsin solution. […] The supernatant was removed, and suspended in cell lysis solution (100 μl) composed of 1% NP-40, 0.1% SDS, 0.5% sodium deoxycholate. […]
# To quantitatively analyze the inhibitory efficiency thereof, the concentration of a compound that inhibits geranylgeranylation of Rap1A by half was calculated as EC50 value and studied by comparison. […]
# MKN1 cells / γδ T cells = assay: TNF-α production from γδ T cells stimulated by compound-pretreated MKN1 cells; conditions: MKN1, Gastric cancer, 4 hr pretreatment, 16 hr with γδ T cells, read-out: TNF-α50
# Procedure: as §1
# [2] = test system: MOLT-4 cells / γδ T cells; assay: TNF-α production from γδ T cells stimulated by compound-pretreated MOLT-4 cells; conditions: MOLT-4, Acute lymphoblastic leukemia, 4 hr pretreatment, 16 hr with γδ T cells, read-out: TNF-α50
# Procedure: as §1
# TFK-1 cells = assay: TFK-1 tumor cell growth inhibition (CellTiterGlo); conditions: TFK-1, Cholangiocarcinoma, 4 days culture
# Procedure: (§2) First, EJ-1, 786-0, MKN1, OST, PC-3, PK-1, LK-2, G-361, TFK-1, MRK-nu-1 were cultured in RPMI1640 medium supplemented with 10% calf serum at 37° C. under 5% CO2 atmosphere while maintaining log phase. The cells were recovered by a conventional EDTA trypsin treatment, and centrifuged at 1,700 rpm, 4° C. for 5 min. The supernatant was removed, and suspended in RPMI1640 medium supplemented with 10% calf serum to 500 cells/50 μl. On the other hand, 10 mM stock solution of compound 7 which is a bisphosphonic acid POM ester derivative was serially diluted 2-fold from 200 pM. In addition, 10 mM stock solution of compound 14 which is bisphosphonic acid was serially diluted 2-fold from 2 mM. Then, the cell suspension (50 μl, 500 cells) and the compound solution (50 μl) were added to a flat-bottomed 96 well plate and cultured at 37° C. under 5% CO2 atmosphere for 4 days. Then, 100 μl of CellTiterGlo solution was added, and the mixture was pipetted 10 strokes, and transferred to a 96 well OptiPlate. After standing at room temperature for 10 min, the luminescence was measured by a luminometer and IC50 value was calculated.
# [3] = test system: MOLT-3 cells / γδ T cells; assay: TNF-α production from γδ T cells stimulated by compound-pretreated MOLT-3 cells; conditions: MOLT-3, Acute lymphoblastic leukemia, 4 hr pretreatment, 16 hr with γδ T cells, read-out: TNF-α50
# Procedure: as §1
# PC-3 cells = assay: PC-3 tumor cell growth inhibition (CellTiterGlo); conditions: PC-3, Prostate cancer, 4 days culture
# Procedure: as §2
# G-361 cells = assay: G-361 tumor cell growth inhibition (CellTiterGlo); conditions: G-361, Melanoma, 4 days culture
# Procedure: as §2
# G-361 cells / γδ T cells = assay: TNF-α production from γδ T cells stimulated by compound-pretreated G-361 cells; conditions: G-361, Melanoma, 4 hr pretreatment, 16 hr with γδ T cells, read-out: TNF-α50
# Procedure: as §1
compound,measurement,setting,value
"CC(C)(C)C(=O)OCOP(=O)(OCOC(=O)C(C)(C)C)C(CNc1nccs1)P(=O)(OCOC(=O)C(C)(C)C)OCOC(=O)C(C)(C)C [Compound 7, tetrakispivaloyloxymethyl 2-(thiazol-2-ylamino) ethylidene-1,1-bisphosphonate]",IC50,U937 cells,0.28 µM and 0.26 µM
same,direct antitumor activity (in words),U937 cells; U937 growth inhibition,particularly high activity
same,EC50,C1R cells / γδ T cells,0.53 µM
same,EC50,786-0 cells / γδ T cells,0.065 µM
same,IC50,PEER cells,0.023 µM
same,farnesyl diphosphate synthase inhibitory action in cells (in words),[1],"inhibits efficiently, in any tumor cells, farnesyl diphosphate synthase; also recorded: high farnesyl diphosphate synthase inhibitory action in lymphatic tumor cells and myeloidic tumor cells"
same,EC50,MKN1 cells / γδ T cells,0.56 µM
same,EC50,[2],0.059 µM
same,IC50,TFK-1 cells,0.1 µM
same,EC50,[3],0.066 µM
same,IC50,PC-3 cells,0.22 µM
same,IC50,G-361 cells,0.12 µM
same,EC50,G-361 cells / γδ T cells,0.063 µM
"O=P(O)(O)C(CNc1nccs1)P(=O)(O)O [Compound 14, 2-(thiazol-2-ylamino)ethylidene-1,1-bisphosphonic Acid, reference compound]",IC50,"U937 cells; Homo sapiens, U-937, 96 h",26 µM
same,EC50,C1R cells / γδ T cells,> 100 µM
same,EC50,786-0 cells / γδ T cells; Homo sapiens,> 100 µM
same,IC50,PEER cells; 96 h,82 µM
same,EC50,"MKN1 cells / γδ T cells; Homo sapiens, MKN-1",89 µM
same,EC50,[2]; Homo sapiens,> 100 µM
same,IC50,TFK-1 cells; 96 h,30 µM
same,EC50,[3]; Homo sapiens,> 100 µM
same,IC50,"PC-3 cells; Homo sapiens, 96 h",100 µM
same,IC50,"G-361 cells; Homo sapiens, 96 h",20 µM
same,EC50,G-361 cells / γδ T cells; Homo sapiens,5.1 µM
